pIC50: −log10 of the molar value. Counter-ions that a name gives are not always drawn.
The compounds below were run against human CDK9/CyclinT kinase complex (Homo sapiens (Human), UniProt P50750) (assay: In Vitro CDK9/CyclinT Assay (IMAP fluorescent polarization)). Conditions: not given.
Assay type: biochemical
Protocol: In Vitro CDK9/CyclinT Assay
The activity of the compounds described in the present invention can be determined by measuring the phosphorylation of a fluorescently-labeled peptide by human CDK9/CyclinT kinase complex by fluorescent polarization using a commercially available IMAP Screening Express Assay Kit (Molecular devices).
Test compounds were diluted in 100% DMSO to 5 mM stock concentration, then further dilutions were made in H2O or 100% DMSO to desirable concentrations. Each reaction consisted of 5 nM enzyme: CDK9/CyclinT (Proqinase cat#0371-0345-1), 400 nM TAMRA-Rbtide (synthetic 15-mer peptide derived from human retinoblastoma tumor suppressor protein labeled with TAMRA dye, Genecust Europe), 12 μM ATP (=Kmapp, Sigma-Aldrich) and kinase buffer: 20 mM MOPS pH 7 (Sigma-Aldrich), 1 mM DTT (Sigma-Aldrich), 10 mM MgCl2 (Sigma-Aldrich), 0.01% Tween 20 (Sigma-Aldrich).
For each reaction, 4 or 6 μl containing TAMRA-Rbtide, ATP and kianse buffer were combined with 2 μl diluted compound in H2O or 0.028 μl compound in 100% DMSO. The kinase reaction was started by the addition of 2 μl diluted enzyme. The reaction was allowed to run for 1 hour at room temperature. The reaction was stopped by adding 15 μl IMAP beads (1:400 beads in progressive (100% buffer A) 1× buffer).

Chain of human CDK9/CyclinT kinase complex (P50750 whole entry): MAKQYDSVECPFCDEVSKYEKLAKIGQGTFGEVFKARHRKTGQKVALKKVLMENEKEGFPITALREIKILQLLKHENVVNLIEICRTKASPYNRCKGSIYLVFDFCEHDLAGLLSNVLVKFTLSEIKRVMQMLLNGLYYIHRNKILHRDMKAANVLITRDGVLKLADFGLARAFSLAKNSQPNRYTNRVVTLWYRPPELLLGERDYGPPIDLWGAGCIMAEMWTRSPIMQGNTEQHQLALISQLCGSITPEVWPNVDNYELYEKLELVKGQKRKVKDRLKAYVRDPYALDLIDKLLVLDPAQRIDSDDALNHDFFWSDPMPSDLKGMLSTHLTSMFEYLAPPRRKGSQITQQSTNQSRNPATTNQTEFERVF
Chain of human CDK9/CyclinT kinase complex (O60563 whole entry partner): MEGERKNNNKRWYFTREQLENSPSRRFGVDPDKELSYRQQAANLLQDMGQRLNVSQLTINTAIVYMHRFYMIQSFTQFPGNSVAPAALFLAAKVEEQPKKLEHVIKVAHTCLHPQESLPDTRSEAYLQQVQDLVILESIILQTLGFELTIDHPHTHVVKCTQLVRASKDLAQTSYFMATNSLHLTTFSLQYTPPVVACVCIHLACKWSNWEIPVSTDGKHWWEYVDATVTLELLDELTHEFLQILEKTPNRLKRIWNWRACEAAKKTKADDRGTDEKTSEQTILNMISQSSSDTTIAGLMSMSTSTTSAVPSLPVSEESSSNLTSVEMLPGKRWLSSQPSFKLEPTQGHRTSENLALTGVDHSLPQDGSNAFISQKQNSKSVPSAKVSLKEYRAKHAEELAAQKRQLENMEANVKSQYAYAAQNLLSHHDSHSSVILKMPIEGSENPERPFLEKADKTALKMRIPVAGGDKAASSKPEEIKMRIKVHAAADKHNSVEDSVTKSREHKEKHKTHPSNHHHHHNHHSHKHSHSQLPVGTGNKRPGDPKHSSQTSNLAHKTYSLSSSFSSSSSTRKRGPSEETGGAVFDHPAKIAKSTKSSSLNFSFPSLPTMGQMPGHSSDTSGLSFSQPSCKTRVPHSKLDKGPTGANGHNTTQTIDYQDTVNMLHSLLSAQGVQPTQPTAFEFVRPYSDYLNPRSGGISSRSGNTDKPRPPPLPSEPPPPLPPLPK

SMILES	pIC50
COc1ccc(Nc2cc(-c3ccccc3OC)ncn2)cc1NC(C)=O [Example 50, N-{2-Methoxy-5-[6-(2-methoxy-phenyl)-pyrimidin-4-ylamino]-phenyl}-acetamide]	> 6.00
COc1cc(Nc2cc(-c3ccccc3OC)ncn2)ccc1OCc1ccccc1 [Example 120, (4-Benzyloxy-3-methoxy-phenyl)-[6-(2-methoxy-phenyl)-pyrimidin-4-yl]-amine]	> 5.00
COc1ccc(-c2cc(Nc3ccc(OC)c([N+](=O)[O-])c3)ncn2)cc1 [Example 65, (4-Methoxy-3-nitro-phenyl)-[6-(4-methoxy-phenyl)-pyrimidin-4-yl]-amine]	< 5.00
COc1cc(F)ccc1-c1cc(Nc2ccc(F)c([N+](=O)[O-])c2)ncn1 [Example 102, [6-(4-Fluoro-2-methoxy-phenyl)-pyrimidin-4-yl]-(4-fluoro-3-nitro-phenyl)-amine]	> 5.00
COc1ccc(Nc2cc(-c3ccccc3OC)ncn2)cc1C(=O)NCCCN1CCN(C)CC1 [Example 47, 2-Methoxy-5-[6-(2-methoxy-phenyl)-pyrimidin-4-ylamino]-N-[3-(4-methyl-piperazin-1-yl)-propyl]-benzamide]	> 6.00
COc1ccccc1-c1cc(Nc2ccc(N(C)C)c(O)c2)ncn1 [Example 108, 2-Dimethylamino-5-[6-(2-methoxy-phenyl)-pyrimidin-4-ylamino]-phenol]	> 6.00
COC(=O)N(C)c1cc(Nc2cc(-c3ccccc3OC)ncn2)ccc1OC [Example 98, {2-Methoxy-5-[6-(2-methoxy-phenyl)-pyrimidin-4-ylamino]-phenyl}-methyl-carbamic acid methyl ester hydrochloride]	> 6.00
COc1ccc(Nc2cc(-c3ccccc3OC)ncn2)cc1Br [Example 115, (3-Bromo-4-methoxy-phenyl)-[6-(2-methoxy-phenyl)-pyrimidin-4-yl]-amine]	> 5.00
COc1ccc(Nc2cc(-c3ccccc3OC)ncn2)cc1OC(C)=O [Example 93, Acetic acid 2-methoxy-5-[6-(2-methoxy-phenyl)-pyrimidin-4-ylamino]-phenyl ester]	> 6.00
COc1ccccc1-c1cc(Nc2ccc(Oc3ccccc3)c([N+](=O)[O-])c2)ncn1 [Example 96, [6-(2-Methoxy-phenyl)-pyrimidin-4-yl]-(3-nitro-4-phenoxy-phenyl)-amine]	< 5.00

Same assay, conditions: Table 1

pIC50	SMILES
> 6.00	CNc1cc(Nc2cc(-c3ccccc3OC)ncn2)ccc1OC [Example 99, 4-Methoxy-N^1-[6-(2-methoxy-phenyl)-pyrimidin-4-yl]-N^3-methyl-benzene-1,3-diamine]
> 6.00	COc1ccc(F)cc1-c1cc(Nc2cc(N)c(OC)c(F)c2)ncn1 [Example 91, 5-Fluoro-N^1-[6-(5-fluoro-2-methoxy-phenyl)-pyrimidin-4-yl]-4-methoxy-benzene-1,3-diamine]
> 7.00	COc1ccc(Nc2cc(-c3ccccc3OC)ncn2)cc1NC=O [Example 55, N-{2-Methoxy-5-[6-(2-methoxy-phenyl)-pyrimidin-4-ylamino]-phenyl}-formamide]
< 5.00	COc1cc(F)c(F)cc1-c1cc(Nc2ccc(OC)c([N+](=O)[O-])c2)ncn1 [Example 82, [6-(4,5-Difluoro-2-methoxy-phenyl)-pyrimidin-4-yl]-(4-methoxy-3-nitro-phenyl)-amine]
> 6.00	COc1cc(F)ccc1-c1cc(Nc2ccc(F)c(N)c2)ncn1 [Example 104, 4-Fluoro-N^1-[6-(4-fluoro-2-methoxy-phenyl)-pyrimidin-4-yl]-benzene-1,3-diamine]
> 5.00	COc1ccc(Nc2cc(-c3ccccc3OC)ncn2)cc1Nc1nc2ccccc2[nH]1 [Example 54, N^3-(1H-Benzoimidazol-2-yl)-4-methoxy-N^1-[6-(2-methoxy-phenyl)-pyrimidin-4-yl]-benzene-1,3-diamine]
> 6.00	COc1ccc(Nc2cc(-c3ccc(F)cc3OC(C)C)ncn2)cc1[N+](=O)[O-] [Example 85, [6-(4-Fluoro-2-isopropoxy-phenyl)-pyrimidin-4-yl]-(4-methoxy-3-nitro-phenyl)-amine]
> 5.00	COc1ccc(Nc2cc(-c3ccccc3OC(C)C)ncn2)cc1[N+](=O)[O-] [Example 78, [6-(2-Isopropoxy-phenyl)-pyrimidin-4-yl]-(4-methoxy-3-nitro-phenyl)-amine]
> 5.00	COc1ccc(F)cc1-c1cc(Nc2ccc(OC)c([N+](=O)[O-])c2)ncn1 [Example 74, [6-(5-Fluoro-2-methoxy-phenyl)-pyrimidin-4-yl]-(4-methoxy-3-nitro-phenyl)-amine]
> 6.00	COc1ccc(Nc2cc(-c3ccccc3OC)ncn2)cc1NC(N)=O [Example 56, {2-Methoxy-5-[6-(2-methoxy-phenyl)-pyrimidin-4-ylamino]-phenyl}-urea]
> 6.00	COc1ccc(Nc2cc(-c3ccc(F)cc3OC)ncn2)cc1NC(N)=O [Example 119, {5-[6-(4-Fluoro-2-methoxy-phenyl)-pyrimidin-4-ylamino]-2-methoxy-phenyl}-urea]
> 6.00	CCOc1ccccc1-c1cc(Nc2ccc(OC)c(O)c2)ncn1 [Example 124, 5-[6-(2-Ethoxy-phenyl)-pyrimidin-4-ylamino]-2-methoxy-phenol]
> 5.00	CCOc1ccc(Nc2cc(-c3ccccc3OC)ncn2)cc1[N+](=O)[O-] [Example 100, (4-Ethoxy-3-nitro-phenyl)-[6-(2-methoxy-phenyl)-pyrimidin-4-yl]-amine]
> 6.00	COc1cc(F)ccc1-c1cc(Nc2ccc(OC)c([N+](=O)[O-])c2)ncn1 [Example 63, [6-(4-Fluoro-2-methoxy-phenyl)-pyrimidin-4-yl]-(4-methoxy-3-nitro-phenyl)-amine]
> 7.00	COc1cc(Nc2cc(-c3ccccc3OC)ncn2)ccc1O [Example 121, 2-Methoxy-4-[6-(2-methoxy-phenyl)-pyrimidin-4-ylamino]-phenol]
> 5.00	COc1ccccc1-c1cc(Nc2ccc(Oc3ccccc3)c(N)c2)ncn1 [Example 97, N^1-[6-(2-Methoxy-phenyl)-pyrimidin-4-yl]-4-phenoxy-benzene-1,3-diamine]
> 6.00	CCOc1ccc(Nc2cc(-c3ccc(F)cc3OC)ncn2)cc1[N+](=O)[O-] [Example 103, (4-Ethoxy-3-nitro-phenyl)-[6-(4-fluoro-2-methoxy-phenyl)-pyrimidin-4-yl]-amine]
< 5.00	COc1ccc(Nc2cc(-c3ccccc3Oc3ccccc3)ncn2)cc1[N+](=O)[O-] [Example 76, (4-Methoxy-3-nitro-phenyl)-[6-(2-phenoxy-phenyl)-pyrimidin-4-yl]-amine]
> 5.00	COc1ccccc1-c1cc(Nc2cc(F)c(OC)c([N+](=O)[O-])c2)ncn1 [Example 87, (3-Fluoro-4-methoxy-5-nitro-phenyl)-[6-(2-methoxy-phenyl)-pyrimidin-4-yl]-amine]
> 6.00	COc1cc(Nc2cc(-c3ccccc3OC)ncn2)ccc1NS(C)(=O)=O [Example 60, N-{2-Methoxy-4-[6-(2-methoxy-phenyl)-pyrimidin-4-ylamino]-phenyl}-methanesulfonamide]
> 6.00	CCOc1ccccc1-c1cc(Nc2ccc(OC)c([N+](=O)[O-])c2)ncn1 [Example 61, [6-(2-Ethoxy-phenyl)-pyrimidin-4-yl]-(4-methoxy-3-nitro-phenyl)-amine]
> 6.00	COc1ccc(Nc2cc(-c3cc(F)c(F)cc3OC)ncn2)cc1NC=O [Example 84, N-{5-[6-(4,5-Difluoro-2-methoxy-phenyl)-pyrimidin-4-ylamino]-2-methoxy-phenyl}-formamide]
> 5.00	COc1ccccc1-c1cc(Nc2ccc([N+](=O)[O-])c(OC)c2)ncn1 [Example 58, (3-Methoxy-4-nitro-phenyl)-[6-(2-methoxy-phenyl)-pyrimidin-4-yl]-amine]

SMILES	pIC50
COC(=O)Oc1cc(Nc2cc(-c3ccc(F)cc3OC)ncn2)ccc1OC [Example 125, Carbonic acid 5-[6-(4-fluoro-2-methoxy-phenyl)-pyrimidin-4-ylamino]-2-methoxy-phenyl ester methyl ester]	> 6.00
COc1cc(Nc2cc(-c3ccccc3OC)ncn2)ccc1C(=O)NCCO [Example 135, N-(2-Hydroxy-ethyl)-2-methoxy-4-[6-(2-methoxy-phenyl)-pyrimidin-4-ylamino]-benzamide]	> 6.00
COc1ccc(Nc2cc(-c3ccccc3OC)ncn2)cc1OC(=O)N(C)C [Example 94, Dimethyl-carbamic acid 2-methoxy-5-[6-(2-methoxy-phenyl)-pyrimidin-4-ylamino]-phenyl ester]	> 6.00
COc1ccc(Nc2cc(-c3ccccc3OC)ncn2)cc1C1=CCNCC1 [Example 116, [6-(2-Methoxy-phenyl)-pyrimidin-4-yl]-[4-methoxy-3-(1,2,3,6-tetrahydro-pyridin-4-yl)-phenyl]-amine]	> 7.00
COC(=O)Oc1cc(Nc2cc(-c3ccccc3OC)ncn2)ccc1OC [Example 95, Carbonic acid 2-methoxy-5-[6-(2-methoxy-phenyl)-pyrimidin-4-ylamino]-phenyl ester methyl ester]	> 6.00
CCOc1ccc(Nc2cc(-c3ccccc3OC)ncn2)cc1O [Example 110, 2-Ethoxy-5-[6-(2-methoxy-phenyl)-pyrimidin-4-ylamino]-phenol]	> 6.00

From patent US9617225B2 (VIROSTATICS SRL, priority 2012, dated 2017)
